{"source": "patent US20120270771A1", "about": "“APOLIPOPROTEIN A-1 MIMIC PEPTIDES, AND THERAPEUTIC AGENT FOR TREATING HYPERLIPIDEMIA AND DISEASES RELATED TO HYPERLIPIDEMIA COMPRISING SAME” (SNU R&DB FOUNDATION, priority 2009, published 2012)", "key": {"[1]": {"test": "tryptophan fluorescence measurement of peptide with or without liposome (LUV)", "type": "binding", "settings": "for dependence of tryptophan fluorescence intensity on the relative amount of cholesterol in the liposome: LUVs containing cholesterol at 0%, 10%, 20%, 30% and 40%, FIG. 5; for tryptophan fluorescence intensity measured under LUV condition (ratio with or without liposome): 1 μM peptide, liposome 0.1 mg/ml; for tryptophan fluorescence intensity measured under LUV condition (ratio with or without liposome) / increase in fluorescence intensity in the lipid environment when compared to in aqueous solution: FIG. 4; for increase in fluorescence intensity in the lipid environment when compared to in aqueous solution: tryptophan fluorescence", "description": "Total 10 mg of lipid compound was prepared by mixing phosphatidylcholine (soybean) and the LUVs containing cholesterol at 0%, 10%, 20%, 30% and 40%. The lipid compound was dissolved in 2 mL of solution containing 2:1 volumes of chloroform and methanol. The solvent is removed by using distillation condensation device and yielding a thin lipid film in the flask. The lipid film is hydrated by adding 1 mL of tertiary distilled water. Liposomes of the same size were generated by extruding the solution through a […] filter for 5 times, and 0.1 μm polycarbonate filter for 5 times using a cylinder fitted with a high pressure regulator. The amount of cholesterol contained in the liposome was measured by using cholesterol Lab-assay kit.\nFluorescence Anisotropy was measured using AMINCO-Bowman Series Luminescence Spectrometer at 20° C. For the buffer system, 10 mM HEPES (N-2-Hydroxyethylpiperazine-N′-2-Ethanesulfonic Acid, pH 7.4) containing 140 mM NaCl, 1 mM EDTA (ethylenediaminetetraacetic acid) was used. The concentration of the peptide was 500 μM and was kept at 0° C. The fluorescence emission spectrum was monitored by adding […] of peptide with 499 μl buffer solution to a final concentration of 1 μM. Liposome was added to the above buffer and peptide mixture solution to the final concentration of 0.1 mg/ml. The ratio of the intensity was calculated by measuring the spectrum in the condition of with or without liposome."}, "macrophage cell line": {"tested_on": "macrophage cell line", "test": "cholesterol efflux assay in macrophage cells loaded with 3H-labeled cholesterol", "type": "cell-based, Human", "settings": "20 μM peptide, 4 hr incubation", "description": "The present inventors determined the calculated mass value of the Apo A-I mimic peptide and the actual mass value of the A-1 mimic peptide acquired following the synthesis and purification step (see Table 1). In addition, cholesterol efflux was analyzed to screen the peptides. Human macrophage cells were treated with ^3H radioisotope labeled cholesterol. Next, the cells were treated with each of the peptide prepared from above. The amount of high density lipoprotein (HDL) produced was analyzed by measuring the amount of intracellular cholesterol and extracellular cholesterol released from the macrophage. […] There was a significant increase in cholesterol efflux when phenylalanine was substituted with tryptophan or naphthylalanine (see FIG. 3).\nIn order to screen which of the peptide synthesized from Example 1 mimics the Apo A-I, cholesterol efflux assay was performed by treating the macrophage cell line with the peptides. In particular, DMEM (Dulbecco's Modified Eagle medium) containing penicillin-streptomycin and 10% FBS (Fetal Bovine Serum) was used as the cell culture medium. […] The culture medium and the cells were separated to measure the radioactivity using Liquid Scintillation Counter. The level of cholesterol efflux was determined by measuring the ratio of isotope labeled cholesterol remained in the cell and in the cell culture medium, respectively."}}, "note": "Square brackets hold non-standard residues; d marks the D form. 2Nal = N[C@@H](Cc1ccc2ccccc2c1)C(=O)O"}
{"substance": "Ac-DWFAKDYFKKAFVEEFAK (Ac-DWFAKDYFKKAFVEEFAK-NH2) [Sc-4F, negative control group of 4F, reference compound]", "values": [{"measurement": "dependence of tryptophan fluorescence intensity on the relative amount of cholesterol in the liposome", "setting": "[1]", "result": "irrelevant to the concentration of cholesterol"}]}
{"substance": "Ac-DWFKAFYDKVAEKFKEAF (Ac-DWFKAFYDKVAEKFKEAF-NH2) [4F, existing Apo A-I mimic peptide, first generation amphiphilic alpha helix peptide containing 4 phenylalanine, reference compound]", "values": [{"measurement": "tryptophan fluorescence intensity measured under LUV condition (ratio with or without liposome)", "setting": "[1]", "result": "about 1.9"}, {"measurement": "dependence of tryptophan fluorescence intensity on the relative amount of cholesterol in the liposome", "setting": "[1]", "result": "irrelevant to the concentration of cholesterol"}]}
{"substance": "Ac-EWFKAFYDKVAEKFKEAF (Ac-EWFKAFYDKVAEKFKEAF-NH2) [1a]", "values": [{"measurement": "tryptophan fluorescence intensity measured under LUV condition (ratio with or without liposome)", "setting": "[1]", "result": "~2.1"}, {"measurement": "increase in fluorescence intensity in the lipid environment when compared to in aqueous solution", "setting": "[1]", "result": "about 2.1 fold"}]}
{"substance": "Ac-EWNal2KAFYDKVAEKFKEANal2 (Ac-EW[2Nal]KAFYDKVAEKFKEA[2Nal]-NH2; SMILES CC(=O)N[C@@H](CCC(=O)O)C(=O)N[C@@H](Cc1c[nH]c2ccccc12)C(=O)N[C@@H](Cc1ccc2ccccc2c1)C(=O)N[C@@H](CCCCN)C(=O)N[C@@H](C)C(=O)N[C@@H](Cc1ccccc1)C(=O)N[C@@H](Cc1ccc(O)cc1)C(=O)N[C@@H](CC(=O)O)C(=O)N[C@@H](CCCCN)C(=O)N[C@H](C(=O)N[C@@H](C)C(=O)N[C@@H](CCC(=O)O)C(=O)N[C@@H](CCCCN)C(=O)N[C@@H](Cc1ccccc1)C(=O)N[C@@H](CCCCN)C(=O)N[C@@H](CCC(=O)O)C(=O)N[C@@H](C)C(=O)N[C@@H](Cc1ccc2ccccc2c1)C(N)=O)C(C)C) [2s]", "values": [{"measurement": "increase in cholesterol efflux when compared to peptide 4F", "setting": "macrophage cell line", "result": "about 300%"}, {"measurement": "tryptophan fluorescence intensity measured under LUV condition (ratio with or without liposome)", "setting": "[1]", "result": "about 4.3"}, {"measurement": "dependence of tryptophan fluorescence intensity on the relative amount of cholesterol in the liposome", "setting": "[1]", "result": "significant increase of fluorescence intensity according to the increased concentration of the cholesterol inside the liposome"}, {"measurement": "increase in fluorescence intensity in the lipid environment when compared to in aqueous solution", "setting": "[1]", "result": "about 4.30 fold"}]}
